Measured values as given in ChEMBL document CHEMBL3792284, “Synthesis of triazoloquinazolinone based compounds as tubulin polymerization inhibitors and vascular disrupting agents” (Eur J Med Chem, 2016).

What was measured:
Format in all cases: functional
SK-MEL-5 = assay: Growth inhibition of human SK-MEL-5 cells after 48 hrs by sulforhodamine B assay; details: SK-MEL-5, 48 h
HUVEC [1] = assay: Inhibition of cell invasion of HUVEC at 1 uM after 24 hrs by crystal violet staining based Boyden chamber assay; details: Homo sapiens
HUVEC [2] = assay: Inhibition of cell invasion of HUVEC after 24 hrs by crystal violet staining based Boyden chamber assay; details: Homo sapiens
[3] = Growth inhibition of human DU145 cells at 10 uM after 48 hrs by sulforhodamine B assay; details: DU-145, 48 h, read-out: GI
[4] = Growth inhibition of human HL-60(TB) cells at 10 uM after 48 hrs by sulforhodamine B assay; details: HL-60, 48 h, read-out: GI
[5] = Growth inhibition of human HCT116 cells after 48 hrs by sulforhodamine B assay; details: HCT-116, 48 h
A549 = assay: Growth inhibition of human A549/ATCC cells after 48 hrs by sulforhodamine B assay; details: A549, 48 h
[6] = Growth inhibition of human PC3 cells after 48 hrs by sulforhodamine B assay; details: PC-3, 48 h
MDA-MB-435 = assay: Cytotoxicity against human MDA-MB-435 cells assessed as cell growth at 10 uM after 48 hrs by sulforhodamine B assay; details: MDA-MB-435, 48 h, read-out: Activity
[7] = Growth inhibition of human SF295 cells after 48 hrs by sulforhodamine B assay; details: SF-295, 48 h
SR = assay: Growth inhibition of human SR cells at 10 uM after 48 hrs by sulforhodamine B assay; details: read-out: GI
[8] = Growth inhibition of human SNB75 cells at 10 uM after 48 hrs by sulforhodamine B assay; details: SNB-75, 48 h, read-out: GI
HUVEC [9] = assay: Inhibition of cell invasion of HUVEC at 0.1 uM after 24 hrs by crystal violet staining based Boyden chamber assay; details: Homo sapiens

## COc1ccc(-c2nnc3n(C)c(=O)c4ccccc4n23)cc1O
SK-MEL-5
  GI50: 59 nM
HUVEC [1]
  inhibition at 1 µM: 89%
HUVEC [2]
  inhibition: Dose-dependent effect
[3]
  inhibition of growth at 10 µM: 81%
[4]
  inhibition of growth at 10 µM: 100%
[5]
  GI50: 57 nM
A549
  GI50: 1840 nM
[6]
  GI50: 1430 nM
MDA-MB-435
  growth at 10 µM: 62%
[7]
  GI50: 1990 nM
SR
  inhibition of growth at 10 µM: 95%
[8]
  inhibition of growth at 10 µM: 88%
HUVEC [9]
  inhibition at 0.1 µM: 36%
